{
  "source": "paper PMC10865345",
  "about": "“Multivalent Calixarene Complexation of a Designed Pentameric Lectin” (Biomacromolecules, 2024)",
  "molecular_target": "T1, Pent (designed pentameric 5-bladed β-propeller lectin, 5c2n-N33K)",
  "T1 construct": "47-residue monomer (lacking Met1), homopentamer of ~26 kDa; designed, based on tachylectin-2 (PDB 5C2N)",
  "test": "X-ray cocrystal structures (forms I and II); 1H-15N HSQC NMR titration",
  "assay_type": "binding, synthetic construct",
  "data": [
    {"smiles": "O=S(=O)(O)c1cc2c(O)c(c1)Cc1cc(S(=O)(=O)O)cc(c1O)Cc1cc(S(=O)(=O)O)cc(c1O)Cc1cc(S(=O)(=O)O)cc(c1O)Cc1cc(S(=O)(=O)O)cc(c1O)Cc1cc(S(=O)(=O)O)cc(c1O)Cc1cc(S(=O)(=O)O)cc(c1O)Cc1cc(S(=O)(=O)O)cc(c1O)C2", "note": "[sclx8, sulfonato-calix[8]arene]", "values": [
      {"measurement": "Kd", "result": "< 3000", "unit": "nM"}
    ]}
  ]
}
